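Tested at 5 concentrations; 48 h exposure; 96-well plates; endpoints linearly interpolated, else capped at highest concentration. GI50 = concentration required for 50% inhibition of growth.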 Active and inactive are the calls of the source. Cut-off read from the data, not from the text of the source: active = GI50 up to about 1.1 µM and inactive = higher.
Tests used:
Experiment in all cases: NCI tumour cell line growth inhibition, 48 h
UO-31 = system: UO-31
DLD-1 = system: DLD-1
NCI-H522 = system: NCI-H522
HCT-15 = system: HCT-15
RXF 393 = system: RXF 393
XF498 = system: XF498
SF-539 = system: SF-539
COLO 205 = system: COLO 205
OVCAR-8 = system: OVCAR-8
HCC 2998 = system: HCC 2998
SK-MEL-5 = system: SK-MEL-5
NCI-H460 = system: NCI-H460
RPMI-8226 = system: RPMI-8226
KM12 = system: KM12
EKVX = system: EKVX
TK-10 = system: TK-10
DMS-273 = system: DMS-273
U-251 = system: U-251
NCI-H23 = system: NCI-H23
K562 = system: K562
HOP-92 = system: HOP-92
SNB-78 = system: SNB-78
OVCAR-3 = system: OVCAR-3
SK-OV-3 = system: SK-OV-3
OVCAR-5 = system: OVCAR-5
A498 = system: A498
RXF 631 = system: RXF 631
HOP-18 = system: HOP-18
Malme-3M = system: Malme-3M
SK-MEL-28 = system: SK-MEL-28
ACHN = system: ACHN
SW-620 = system: SW-620
A549 = system: A549
MOLT-4 = system: MOLT-4
M14 = system: M14
KM-20L2 = system: KM-20L2
SF-295 = system: SF-295
UACC-62 = system: UACC-62
CCRF-CEM = system: CCRF-CEM
OVCAR-4 = system: OVCAR-4
CAKI-1 = system: CAKI-1
786-0 = system: 786-0
SNB-75 = system: SNB-75
M19-MEL = system: M19-MEL
HCT-116 = system: HCT-116
UACC-257 = system: UACC-257
SK-MEL-2 = system: SK-MEL-2
IGROV-1 = system: IGROV-1
HL-60 = system: HL-60
SF-268 = system: SF-268
DMS-114 = system: DMS-114
SN12C = system: SN12C
LOX IMVI = system: LOX IMVI
HOP-62 = system: HOP-62
HT-29 = system: HT-29
SNB-19 = system: SNB-19
LXFL 529 = system: LXFL 529
MDA-MB-435 = system: MDA-MB-435
BT-549 = system: BT-549
Hs-578T = system: Hs-578T
MDA-N = system: MDA-N
MDA-MB-231 = system: MDA-MB-231
DU-145 = system: DU-145
NCI/ADR-RES = system: NCI/ADR-RES
MCF7 = system: MCF7
T47D = system: T47D
SR = system: SR
NCI-H226 = system: NCI-H226
PC-3 = system: PC-3

CC1=C(C(=O)CC(=O)C(=O)Nc2ccc(Cl)cc2C)Sc2ccccc2N1
GI50 (UO-31): > 100 µM (inactive) | GI50 (DLD-1): > 100 µM (inactive) | GI50 (NCI-H522): > 84.7 µM (inactive) | GI50 (HCT-15): > 100 µM | GI50 (RXF 393): > 100 µM (inactive) | GI50 (XF498): > 100 µM (inactive) | GI50 (SF-539): > 100 µM (inactive) | GI50 (COLO 205): > 100 µM (inactive) | GI50 (OVCAR-8): > 100 µM (inactive) | GI50 (HCC 2998): > 100 µM (inactive) | GI50 (SK-MEL-5): > 100 µM (inactive) | GI50 (NCI-H460): > 100 µM (inactive) | GI50 (RPMI-8226): > 100 µM (inactive) | GI50 (KM12): > 100 µM (inactive) | GI50 (EKVX): > 100 µM (inactive) | GI50 (TK-10): > 100 µM (inactive) | GI50 (DMS-273): > 100 µM (inactive) | GI50 (U-251): > 100 µM (inactive) | GI50 (NCI-H23): > 100 µM (inactive) | GI50 (K562): > 100 µM (inactive) | GI50 (HOP-92): 22.8 µM (inactive) | GI50 (SNB-78): > 100 µM (inactive) | GI50 (OVCAR-3): > 100 µM (inactive) | GI50 (SK-OV-3): > 100 µM (inactive) | GI50 (OVCAR-5): > 100 µM (inactive) | GI50 (A498): > 100 µM (inactive) | GI50 (RXF 631): > 100 µM (inactive) | GI50 (HOP-18): > 100 µM (inactive) | GI50 (Malme-3M): > 100 µM (inactive) | GI50 (SK-MEL-28): > 100 µM (inactive) | GI50 (ACHN): > 100 µM (inactive) | GI50 (SW-620): > 100 µM (inactive) | GI50 (A549): > 100 µM (inactive) | GI50 (MOLT-4): > 59.6 µM (inactive) | GI50 (M14): > 100 µM (inactive) | GI50 (KM-20L2): > 100 µM (inactive) | GI50 (SF-295): > 100 µM (inactive) | GI50 (UACC-62): > 100 µM (inactive) | GI50 (CCRF-CEM): > 100 µM (inactive) | GI50 (OVCAR-4): > 100 µM (inactive) | GI50 (CAKI-1): > 100 µM (inactive) | GI50 (786-0): > 100 µM (inactive) | GI50 (SNB-75): > 100 µM (inactive) | GI50 (M19-MEL): > 100 µM (inactive) | GI50 (HCT-116): > 100 µM (inactive) | GI50 (UACC-257): > 100 µM (inactive) | GI50 (SK-MEL-2): > 100 µM (inactive) | GI50 (IGROV-1): > 100 µM (inactive) | GI50 (HL-60): > 100 µM (inactive) | GI50 (SF-268): > 100 µM (inactive) | GI50 (DMS-114): > 92.7 µM (inactive) | GI50 (SN12C): > 100 µM (inactive) | GI50 (LOX IMVI): > 100 µM (inactive) | GI50 (HOP-62): > 100 µM (inactive) | GI50 (HT-29): > 100 µM (inactive) | GI50 (SNB-19): > 100 µM (inactive) | GI50 (LXFL 529): > 100 µM (inactive)

C=C(C)C(=O)/N=C(\N)NC#N
GI50 (UO-31): > 62.7 µM (inactive) | GI50 (DLD-1): 68.9 µM (inactive) | GI50 (NCI-H522): 5.81 µM (inactive) | GI50 (HCT-15): 44.6 µM | GI50 (RXF 393): 36.6 µM (inactive) | GI50 (XF498): 41.8 µM (inactive) | GI50 (SF-539): 34.8 µM (inactive) | GI50 (COLO 205): 49.2 µM (inactive) | GI50 (OVCAR-8): 31.4 µM (inactive) | GI50 (HCC 2998): 132 µM (inactive) | GI50 (SK-MEL-5): 75.2 µM (inactive) | GI50 (NCI-H460): > 75 µM (inactive) | GI50 (MDA-MB-435): 131 µM (inactive) | GI50 (BT-549): 14.8 µM (inactive) | GI50 (RPMI-8226): 10.6 µM (inactive) | GI50 (KM12): 59 µM (inactive) | GI50 (EKVX): > 54 µM (inactive) | GI50 (TK-10): 41.7 µM (inactive) | GI50 (DMS-273): 44 µM (inactive) | GI50 (U-251): > 76.9 µM (inactive) | GI50 (NCI-H23): 72.3 µM (inactive) | GI50 (K562): 21.8 µM (inactive) | GI50 (HOP-92): 14.2 µM (inactive) | GI50 (Hs-578T): 161 µM (inactive) | GI50 (SNB-78): 48.3 µM (inactive) | GI50 (OVCAR-3): 68.7 µM (inactive) | GI50 (SK-OV-3): 170 µM (inactive) | GI50 (OVCAR-5): 168 µM (inactive) | GI50 (MDA-N): 39.4 µM (inactive) | GI50 (A498): > 46.5 µM (inactive) | GI50 (MDA-MB-231): 48.2 µM (inactive) | GI50 (RXF 631): > 100 µM (inactive) | GI50 (HOP-18): > 41.8 µM (inactive) | GI50 (Malme-3M): 24.8 µM (inactive) | GI50 (SK-MEL-28): 28.9 µM (inactive) | GI50 (ACHN): 138 µM (inactive) | GI50 (SW-620): 19.3 µM (inactive) | GI50 (A549): 168 µM (inactive) | GI50 (DU-145): 70.5 µM (inactive) | GI50 (NCI/ADR-RES): 35.9 µM (inactive) | GI50 (M14): 45.3 µM (inactive) | GI50 (KM-20L2): 105 µM (inactive) | GI50 (SF-295): > 90.2 µM (inactive) | GI50 (MCF7): 47.5 µM (inactive) | GI50 (UACC-62): 34.7 µM (inactive) | GI50 (T47D): 14.3 µM (inactive) | GI50 (SR): 28.1 µM (inactive) | GI50 (CCRF-CEM): 23.7 µM (inactive) | GI50 (NCI-H226): 145 µM (inactive) | GI50 (OVCAR-4): 19.9 µM (inactive) | GI50 (CAKI-1): 24.4 µM (inactive) | GI50 (786-0): 37.8 µM (inactive) | GI50 (SNB-75): 67.9 µM (inactive) | GI50 (M19-MEL): 23.6 µM (inactive) | GI50 (HCT-116): 31.6 µM (inactive) | GI50 (UACC-257): 29.9 µM (inactive) | GI50 (SK-MEL-2): 47.2 µM (inactive) | GI50 (IGROV-1): > 46.9 µM (inactive) | GI50 (HL-60): 20 µM (inactive) | GI50 (SF-268): 27.1 µM (inactive) | GI50 (DMS-114): 30.5 µM (inactive) | GI50 (SN12C): 36.4 µM (inactive) | GI50 (LOX IMVI): 33 µM (inactive) | GI50 (HOP-62): > 63.1 µM (inactive) | GI50 (HT-29): 62.8 µM (inactive) | GI50 (SNB-19): 182 µM (inactive) | GI50 (LXFL 529): 63.4 µM (inactive) | GI50 (PC-3): 158 µM (inactive)

Reference: ChEMBL document CHEMBL1201862, “PubChem BioAssay data set” (2004)
